How the values were obtained:
[1] = system: primary human mesenchymal stem cells (hMSCs); experiment: In vitro mineralization assay (alizarin red) in hMSCs; assay type: cell-based; details: hMSCs in osteogenic medium, 10 μM from day 12 to 18, normalized to cell number
Procedure: To extend these observations to human osteoblast maturation, a quantitative assay was used to analyze mineralization in differentiating primary human mesenchymal stem cells (hMSCs). Bone marrow-derived hMSCs were cultured in unbiased growth medium for at least two passages and then cultured in osteogenic medium for 12 to 21 days and stained with alizarin red to identify a time window in which spontaneous mineralization first occurred (FIG. 4A). Subsequently, hMSCs in osteogenic medium were treated continuously with DIPQUO from day 12 to 18, stained and compared with equivalent DMSO treated controls, and then normalized to total cell numbers (FIG. 4B). DIPQUO-treated samples incorporated alizarin red in a molar ratio approximately 5 times greater than DMSO-treated samples (FIGS. 4C and 4D).
For mineralization studies, primary bone marrow-derived hMSCs (Lonza) were maintained and passaged in complete hMSC growth medium (Lonza). Cells were then switched to osteogenic medium (Lonza PT-3002) for 12 days, after which they were treated with DMSO or 10 μM DIPQUO for an additional 6 days. […] Staining was quantified using the Osteogenesis Quantitation kit (Millipore ECM815) following manufacturer's instructions. […] Absorbance was measured at 405 nm using an EMax Plus microplate reader and SoftMax Pro 7.0 software. […]

p38 MAPK = experiment: Western blotting of p38 MAPK in BRITER cells; assay type: cell-based, mouse; details: BMP-2/BMP-4 repression by tamoxifen
Procedure: Cells were maintained in DMEM with 10% FBS. For analysis of DIPQUO effects independent of BMP signaling, BMP-2 and BMP-4 knockdown was achieved by treating cells overnight with 1 μM 4-hydroxytamoxifen (4-OHT), followed by continued maintenance in 1 μM 4-OHT. Cells were serum-starved for at least 6 hours before treatment with recombinant BMP protein or DIPQUO as noted in figure legends.
Whole cell extracts were collected from C2C12 or BRITER cells in complete lysis buffer (20 mM Tris, 150 mM NaCl, 50 mM NaF, 1% NP40 substitute, HALT protease inhibitor cocktail (ThermoScientific). Proteins were resolved by electrophoresis on pre-cast 10% NuPage Bis-Tris gels (Invitrogen) and transferred to PVDF membranes (Bio-Rad). Membranes were blocked in 5% BSA-TBS-0.5% Tween-20 for 15 minutes, then incubated at 4° overnight with primary antibodies. Antibodies used were: rabbit anti-phospho-p38 MAPK (cat. no. 9211), anti-p38 MAPK XP (8690), anti-phospho-SMAD1/5 (9516), anti-SMAD1 XP (6944), anti-phospho-SMAD2/3 (8828), anti-SMAD2/3 XP (8685), anti-phospho-JNK (4668), anti-SAPK/JNK (9252), anti-phospho-Akt XP (4060), pan anti-Akt (4691), anti-phospho ERK p42/p44 (4377), anti-ERK p42/p44 (9102), anti-phospho-MKK3/6 (12280), anti-MKK3 (8535), anti-phospho-TAK1 (4531), anti-TAK1 (5206), anti-HA (3274), and anti-FLAG (14793); all from Cell Signaling); and mouse anti-p38α (cat. no. […]

Cc1cc(C)c2[nH]c(=O)c(-c3[nH]cnc3-c3ccccc3)cc2c1 [RU-0226606, 6,8-dimethyl-3-(4-phenyl-1H-imidazol-5-yl)quinolin-2(1H)-one]
alizarin red incorporation, molar ratio relative to DMSO-treated samples [1]: approximately 5 times
p38 MAPK activation in BRITER cells (p38 MAPK): maintained the ability to activate p38 MAPK even under conditions of BMP repression

— patent publication US11478466B2, “Small molecule promoting osteoblast differentiation” (Cornell University, priority 2019, dated 2022)
